Test system: not listed separately
Assay: Experimental distribution coefficient (eLogD)
Assay type: physicochemical
Settings: S1 Data
In short: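 Lipophilicity derived from retention time on an Ascentis RP-Amide reverse-phase column by LC-MS/MS, compounds at 1.0 μg/mL with internal standard; mobile phases 5% methanol in 10mM ammonium acetate pH 7.4 and 100% methanol. LogD calculated from a linear calibration of eight standards' retention times against known LogD.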
With `Cn1nc(C(F)(F)F)cc1C(=O)Nc1nc2ccc(C#N)cc2n1CC(F)(F)F` [Compound 39, O=C(c1cc(C(F)(F)F)nn1C)Nc2nc(ccc(C#N)c3)c3n2CC(F)(F)F] the eLogD was 3.01.

Same assay, conditions: reverse stationary phase HPLC column (Ascentis RP-Amide); experimental, pH 7.4
Work on `Cn1nc(C(F)(F)F)cc1C(=O)Nc1nc2ccc(C#N)cc2n1CC(F)(F)F` [Compound 39, O=C(c1cc(C(F)(F)F)nn1C)Nc2nc(ccc(C#N)c3)c3n2CC(F)(F)F] yielded a chromatographic logD of 3.

Biological target: T1, 5-HT2B (Homo sapiens, UniProt P41595)
T1 construct: expressed in transfected cells; host or cells: CHO
T1 sequence (P41595 whole entry): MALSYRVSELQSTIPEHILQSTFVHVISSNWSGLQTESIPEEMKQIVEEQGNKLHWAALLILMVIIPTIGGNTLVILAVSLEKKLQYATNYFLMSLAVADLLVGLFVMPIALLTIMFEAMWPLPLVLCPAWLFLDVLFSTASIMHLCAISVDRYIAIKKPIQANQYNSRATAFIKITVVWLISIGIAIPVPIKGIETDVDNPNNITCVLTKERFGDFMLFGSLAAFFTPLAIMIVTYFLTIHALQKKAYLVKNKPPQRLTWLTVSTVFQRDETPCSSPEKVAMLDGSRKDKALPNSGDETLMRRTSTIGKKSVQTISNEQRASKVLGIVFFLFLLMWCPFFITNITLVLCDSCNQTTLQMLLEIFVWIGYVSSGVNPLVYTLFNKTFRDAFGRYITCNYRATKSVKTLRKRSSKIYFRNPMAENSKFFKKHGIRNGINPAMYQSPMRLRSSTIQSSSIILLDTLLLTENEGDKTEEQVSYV
Assay: Bioprofiling 6pt Antag 5-HT2B CHO
Assay type: cell-based
Settings: antagonist readout vs Serotonin (5-HT)
Protocol: (§1) The compounds were evaluated across a panel of 20 liability targets (37 functional assays) which included functional cell-based GPCRs and ion channels in both agonist and antagonist readout, measuring calcium flux and biochemical functional assays for nuclear hormone receptors and phosphodiesterases using TR-FRET format, in a 6 point 1:3 dilution dose series (maximum final concentration of 10 μM).
With `Cn1nc(C(F)(F)F)cc1C(=O)Nc1nc2ccc(C#N)cc2n1CC(F)(F)F` [Compound 39, O=C(c1cc(C(F)(F)F)nn1C)Nc2nc(ccc(C#N)c3)c3n2CC(F)(F)F] the IC50 was over 10 µM.

Test system: not listed separately
Assay: HEPG2 cytotoxicity
Assay type: cell-based
Settings: human, HepG2 cells; S1 Data
From the text: Supplement pntd.0009196.s001.xlsx, sheet "Complete Dataset" | column: HEPG2 CC50 (uM)
`Cn1nc(C(F)(F)F)cc1C(=O)Nc1nc2ccc(C#N)cc2n1CC(F)(F)F` [Compound 39, O=C(c1cc(C(F)(F)F)nn1C)Nc2nc(ccc(C#N)c3)c3n2CC(F)(F)F] showed a CC50 of 1.13 µM.

Test system: not listed separately
Assay: Plasma stability
Assay type: in vitro ADME, mouse
Settings: % remaining after 6h
Protocol: Pooled plasma was thawed in a water bath at 37°C and centrifuged at 4,000 rpm for 5 min to remove any clots. Plasma solution was prepared by adding PBS (pH 7.4) in a 1:1 ratio. It was not necessary to adjust the pH of the final plasma solution. Plasma:PBS and test compound solutions were added to the incubation plate at a final concentration of 2 μM. The plate was incubated in a shaker at 37°C and 50 rpm. Samples were removed (25 μL) from each well of the incubation plate at multiple timepoints and added to a plate containing 100 μL of quench solution (200 ng/mL tolbutamide in 50% acetonitrile/methanol) to precipitate protein. The quenched aliquots were centrifuged at 4000 rpm for 10 min at 5°C. An aliquot of supernatant was transferred from each well to a plate for analysis by LC-MS/MS. Results were calculated as the percentage of remaining parent compound in plasma after incubation.
`Cn1nc(C(F)(F)F)cc1C(=O)Nc1nc2ccc(C#N)cc2n1CC(F)(F)F` [Compound 39, O=C(c1cc(C(F)(F)F)nn1C)Nc2nc(ccc(C#N)c3)c3n2CC(F)(F)F] showed a Mouse plasma stability of 111%.

Same assay, conditions: S1 Data
In the case of `Cn1nc(C(F)(F)F)cc1C(=O)Nc1nc2ccc(C#N)cc2n1CC(F)(F)F` [Compound 39, O=C(c1cc(C(F)(F)F)nn1C)Nc2nc(ccc(C#N)c3)c3n2CC(F)(F)F], the “Plasma Stability” value is reported as 111%.

Biological target: T2, CB1 (Homo sapiens, UniProt P21554)
T2 construct: expressed in transfected cells; host or cells: CHO
T2 sequence (P21554 whole entry): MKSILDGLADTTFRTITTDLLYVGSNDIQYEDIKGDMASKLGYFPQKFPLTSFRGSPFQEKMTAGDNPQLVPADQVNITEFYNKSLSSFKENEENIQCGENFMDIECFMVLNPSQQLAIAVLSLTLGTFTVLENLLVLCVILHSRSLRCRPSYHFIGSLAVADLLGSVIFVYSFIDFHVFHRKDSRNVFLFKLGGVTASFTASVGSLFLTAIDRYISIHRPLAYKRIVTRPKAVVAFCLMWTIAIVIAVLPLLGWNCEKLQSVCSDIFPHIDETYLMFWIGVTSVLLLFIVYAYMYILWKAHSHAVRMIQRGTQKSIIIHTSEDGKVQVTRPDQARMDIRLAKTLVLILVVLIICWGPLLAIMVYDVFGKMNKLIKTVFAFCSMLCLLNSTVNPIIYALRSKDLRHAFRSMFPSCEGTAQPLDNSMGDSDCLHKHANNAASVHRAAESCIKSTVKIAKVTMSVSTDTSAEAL
Assay: Bioprofiling 6pt Antag CB1 CHO
Assay type: cell-based
Settings: antagonist readout vs WIN 55,212-2
Protocol: as §1
In the case of `Cn1nc(C(F)(F)F)cc1C(=O)Nc1nc2ccc(C#N)cc2n1CC(F)(F)F` [Compound 39, O=C(c1cc(C(F)(F)F)nn1C)Nc2nc(ccc(C#N)c3)c3n2CC(F)(F)F], the IC50 is reported as over 10 µM.

Biological target: T3, H1 (Homo sapiens, UniProt P35367)
T3 construct: expressed in transfected cells; host or cells: CHO
T3 sequence (P35367 whole entry): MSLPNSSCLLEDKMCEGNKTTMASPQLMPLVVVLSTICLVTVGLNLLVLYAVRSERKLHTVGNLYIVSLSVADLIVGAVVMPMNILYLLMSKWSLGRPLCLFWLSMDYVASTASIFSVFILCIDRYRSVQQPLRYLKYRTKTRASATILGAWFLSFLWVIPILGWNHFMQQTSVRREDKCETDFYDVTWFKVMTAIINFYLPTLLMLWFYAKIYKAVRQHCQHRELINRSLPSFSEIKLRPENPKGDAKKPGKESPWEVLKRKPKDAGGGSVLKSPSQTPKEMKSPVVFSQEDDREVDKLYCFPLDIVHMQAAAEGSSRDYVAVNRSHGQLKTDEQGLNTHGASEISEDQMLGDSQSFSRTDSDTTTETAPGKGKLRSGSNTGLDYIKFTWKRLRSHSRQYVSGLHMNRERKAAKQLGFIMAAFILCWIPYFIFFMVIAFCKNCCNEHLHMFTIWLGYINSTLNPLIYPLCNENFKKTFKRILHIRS
Assay: Bioprofiling 6pt Antag H1 CHO
Assay type: cell-based
Settings: antagonist readout vs Histamine
Protocol: as §1
`Cn1nc(C(F)(F)F)cc1C(=O)Nc1nc2ccc(C#N)cc2n1CC(F)(F)F` [Compound 39, O=C(c1cc(C(F)(F)F)nn1C)Nc2nc(ccc(C#N)c3)c3n2CC(F)(F)F] gave an IC50 of over 10 µM.

Biological target: T4, 5-HT1A (Homo sapiens, UniProt P08908)
T4 construct: expressed in transfected cells; host or cells: CHO
T4 sequence (P08908 1-422): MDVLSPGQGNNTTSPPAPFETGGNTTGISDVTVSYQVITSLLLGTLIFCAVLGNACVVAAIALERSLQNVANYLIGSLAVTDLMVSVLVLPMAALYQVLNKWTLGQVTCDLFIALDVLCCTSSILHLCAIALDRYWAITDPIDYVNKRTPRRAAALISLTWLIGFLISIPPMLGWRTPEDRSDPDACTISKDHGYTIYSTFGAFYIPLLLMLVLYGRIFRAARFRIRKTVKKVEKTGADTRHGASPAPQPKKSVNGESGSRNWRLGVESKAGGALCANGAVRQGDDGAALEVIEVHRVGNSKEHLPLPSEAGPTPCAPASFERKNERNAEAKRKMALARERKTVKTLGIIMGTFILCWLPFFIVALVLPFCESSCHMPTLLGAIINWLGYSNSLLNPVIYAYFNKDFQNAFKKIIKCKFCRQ
Assay: Bioprofiling 6pt Ag 5-HT1A CHO
Assay type: cell-based
Settings: agonist readout
Protocol: as §1
Work on `Cn1nc(C(F)(F)F)cc1C(=O)Nc1nc2ccc(C#N)cc2n1CC(F)(F)F` [Compound 39, O=C(c1cc(C(F)(F)F)nn1C)Nc2nc(ccc(C#N)c3)c3n2CC(F)(F)F] yielded an EC50 of over 10 µM.

Biological target: T5, ETA (Homo sapiens, UniProt P25101)
T5 construct: expressed in transfected cells; host or cells: CHO
T5 sequence (P25101 21-427): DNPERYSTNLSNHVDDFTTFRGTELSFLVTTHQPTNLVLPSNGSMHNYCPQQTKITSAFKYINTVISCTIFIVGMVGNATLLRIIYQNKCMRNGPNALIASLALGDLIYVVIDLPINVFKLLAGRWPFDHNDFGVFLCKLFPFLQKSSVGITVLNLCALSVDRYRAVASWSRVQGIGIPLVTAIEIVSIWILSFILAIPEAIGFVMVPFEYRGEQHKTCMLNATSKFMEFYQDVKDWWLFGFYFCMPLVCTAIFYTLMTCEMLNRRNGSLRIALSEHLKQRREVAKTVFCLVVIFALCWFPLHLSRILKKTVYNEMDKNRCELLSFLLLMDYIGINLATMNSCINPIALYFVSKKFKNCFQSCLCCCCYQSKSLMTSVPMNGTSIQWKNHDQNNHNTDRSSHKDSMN
Assay: Bioprofiling 6pt Antag ETA CHO
Assay type: cell-based
Settings: antagonist readout vs Endothelin-1 (ET-1)
Protocol: as §1
`Cn1nc(C(F)(F)F)cc1C(=O)Nc1nc2ccc(C#N)cc2n1CC(F)(F)F` [Compound 39, O=C(c1cc(C(F)(F)F)nn1C)Nc2nc(ccc(C#N)c3)c3n2CC(F)(F)F] showed an IC50 of over 10 µM.

Biological target: T6, A1 (Homo sapiens, UniProt P30542)
T6 construct: expressed in transfected cells; host or cells: CHO
T6 sequence (P30542 1-326): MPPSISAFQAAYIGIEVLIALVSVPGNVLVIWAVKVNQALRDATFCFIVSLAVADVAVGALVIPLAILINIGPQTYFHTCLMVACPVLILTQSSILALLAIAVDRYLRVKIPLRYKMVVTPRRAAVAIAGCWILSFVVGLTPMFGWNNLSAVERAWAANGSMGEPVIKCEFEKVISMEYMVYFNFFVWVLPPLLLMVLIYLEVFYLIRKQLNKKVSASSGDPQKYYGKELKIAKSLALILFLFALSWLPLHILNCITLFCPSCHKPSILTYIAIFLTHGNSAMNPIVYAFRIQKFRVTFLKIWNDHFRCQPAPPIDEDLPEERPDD
Assay: Bioprofiling 6pt Ag A1 CHO
Assay type: cell-based
Settings: agonist readout
Protocol: as §1
With `Cn1nc(C(F)(F)F)cc1C(=O)Nc1nc2ccc(C#N)cc2n1CC(F)(F)F` [Compound 39, O=C(c1cc(C(F)(F)F)nn1C)Nc2nc(ccc(C#N)c3)c3n2CC(F)(F)F] the EC50 was over 10 µM.

Biological target: T1, 5-HT2B
Assay: Bioprofiling 6pt Ag 5-HT2B CHO
Assay type: cell-based
Settings: agonist readout
Protocol: as §1
Work on `Cn1nc(C(F)(F)F)cc1C(=O)Nc1nc2ccc(C#N)cc2n1CC(F)(F)F` [Compound 39, O=C(c1cc(C(F)(F)F)nn1C)Nc2nc(ccc(C#N)c3)c3n2CC(F)(F)F] yielded an EC50 of over 10 µM.

Biological target: T7, ETB (Homo sapiens, UniProt P24530)
T7 construct: expressed in transfected cells; host or cells: CHO
T7 sequence (P24530 27-442): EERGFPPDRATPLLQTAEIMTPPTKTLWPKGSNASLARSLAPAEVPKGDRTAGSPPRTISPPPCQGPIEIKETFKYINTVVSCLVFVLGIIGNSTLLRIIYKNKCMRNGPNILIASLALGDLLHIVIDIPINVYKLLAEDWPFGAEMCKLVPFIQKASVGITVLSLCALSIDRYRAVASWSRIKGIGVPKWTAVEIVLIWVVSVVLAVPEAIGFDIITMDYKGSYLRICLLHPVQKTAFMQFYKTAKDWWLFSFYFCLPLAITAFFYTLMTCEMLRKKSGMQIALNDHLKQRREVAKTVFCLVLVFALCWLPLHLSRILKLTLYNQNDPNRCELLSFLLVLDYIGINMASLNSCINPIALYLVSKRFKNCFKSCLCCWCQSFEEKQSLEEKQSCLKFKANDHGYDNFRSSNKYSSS
Assay: Bioprofiling 6pt Antag ETB CHO
Assay type: cell-based
Settings: antagonist readout vs BQ-3020
Protocol: as §1
Compound `Cn1nc(C(F)(F)F)cc1C(=O)Nc1nc2ccc(C#N)cc2n1CC(F)(F)F` [Compound 39, O=C(c1cc(C(F)(F)F)nn1C)Nc2nc(ccc(C#N)c3)c3n2CC(F)(F)F] has an IC50 of over 10 µM.

— paper PMC7932521, “2-aminobenzimidazoles for leishmaniasis: From initial hit discovery to in vivo profiling” (PLoS Neglected Tropical Diseases, 2021)
